{"source": "patent US20220331374A1", "about": "“NOVEL SKIN CARE COMPOSITION” (BEIERSDORF AG, priority 2019, published 2022)", "key": {"C. acnes strain K8": {"tested_on": "C. acnes strain K8", "assay": "Minimum inhibitory concentration (MIC) of cosmetic excipients, strain K8", "assay_type": "cell-based, Cutibacterium acnes", "settings": "% w/vol, incubated anaerobically for 3 days at 37° C., scored visually for growth", "procedure": "(§1) In microbiology, the MIC is the lowest concentration of a chemical which prevents visible growth of bacterium. The resulted MIC value depends both on the microorganism and the test compound. The MIC is determined by preparing concentrations series of the test compound in vitro, incubating the solutions with the separate batches of cultured bacteria, and measuring the results using agar dilution or broth microdilution. For the experiments with C. acnes strains C3 and K8, media comprising yeast extract soy peptone and dextrose were used. The MIC is determined by turbidity.\n(§2) A total of 125 cosmetic excipients were tested for their compatibility with C. acnes strains C3 and K8. Hydrophilic compounds were tested in a 96-well plate liquid broth format, poorly soluble compounds were pre-dissolved in DMSO before dilution in liquid broth and hydrophobic or solid compounds were tested in an agar well diffusion test assay. The different dilutions of the test excipients in media were prepared in Falcon tubes and then distributed in a deep well plate using a multistepper. Each well received 1.2 ml and was subsequently inoculated with 120 μl of C. acnes bacteria suspension (strain C3 and K8). From the deep well plate 200 μl were transferred in each well of a clear 96 well replicate plate. The leftover was discarded. The plates were then incubated anaerobically for 3 days at 37° C. Following incubation, the test plates were visually examined and wells were scored for growth or complete growth inhibition to define the minimum inhibitory concentration.\n(§3) These excipients are listed in the below table with their compatibility values for C. acnes strains C3 and K8. The compatibility values represent the MIC value of the listed ingredients with the tested C. acnes strains. At this concentration [% w/vol] the tested compound starts interfering with the growth of the tested strains. The compounds can be used in formulations at concentrations below this concentration."}, "C. acnes strain C3": {"tested_on": "C. acnes strain C3", "assay": "Minimum inhibitory concentration (MIC) of cosmetic excipients, strain C3", "assay_type": "cell-based, Cutibacterium acnes", "settings": "% w/vol, incubated anaerobically for 3 days at 37° C., scored visually for growth", "procedure": "as §1, §2, §3"}}}
{"compound": "CCCCCCC(O)CO", "note": "(centres unmarked) [caprylyl glycol]", "values": [{"measurement": "COMPATABILITY VALUE K8 [%]", "setting": "C. acnes strain K8", "result": 0.18, "unit": "%"}, {"measurement": "COMPATABILITY VALUE C3 [%]", "setting": "C. acnes strain C3", "result": 0.18, "unit": "%"}]}
{"compound": "CC(CO)CO", "note": "[methylpropanediol]", "values": [{"measurement": "COMPATABILITY VALUE K8 [%]", "setting": "C. acnes strain K8", "result": 4.00, "unit": "%"}, {"measurement": "COMPATABILITY VALUE C3 [%]", "setting": "C. acnes strain C3", "result": 4.00, "unit": "%"}]}
{"compound": "tocopherol", "values": [{"measurement": "COMPATABILITY VALUE K8 [%]", "setting": "C. acnes strain K8", "result": 1.50, "unit": "%"}, {"measurement": "COMPATABILITY VALUE C3 [%]", "setting": "C. acnes strain C3", "result": 1.50, "unit": "%"}]}
{"compound": "ethylhexyl cocoate", "values": [{"measurement": "COMPATABILITY VALUE K8 [%]", "setting": "C. acnes strain K8", "result": 10.00, "unit": "%"}, {"measurement": "COMPATABILITY VALUE C3 [%]", "setting": "C. acnes strain C3", "result": 10.00, "unit": "%"}]}
{"compound": "CCO", "note": "[ethanol]", "values": [{"measurement": "COMPATABILITY VALUE K8 [%]", "setting": "C. acnes strain K8", "result": 3.75, "unit": "%"}, {"measurement": "COMPATABILITY VALUE C3 [%]", "setting": "C. acnes strain C3", "result": 3.75, "unit": "%"}]}
{"compound": "O=C(O)CC(O)(CC(=O)O)C(=O)O", "note": "[citric acid]", "values": [{"measurement": "COMPATABILITY VALUE K8 [%]", "setting": "C. acnes strain K8", "result": 0.08, "unit": "%"}, {"measurement": "COMPATABILITY VALUE C3 [%]", "setting": "C. acnes strain C3", "result": 0.33, "unit": "%"}]}
{"compound": "CC(=O)Oc1c(C)c(C)c2c(c1C)CCC(C)(CCC[C@H](C)CCC[C@H](C)CCCC(C)C)O2", "note": "(some centres unmarked) [tocopheryl acetate]", "values": [{"measurement": "COMPATABILITY VALUE K8 [%]", "setting": "C. acnes strain K8", "result": 1.00, "unit": "%"}, {"measurement": "COMPATABILITY VALUE C3 [%]", "setting": "C. acnes strain C3", "result": 1.00, "unit": "%"}]}
